ChEMBL document CHEMBL2146422, “Viequeamide A, a cytotoxic member of the kulolide superfamily of cyclic depsipeptides from a marine button cyanobacterium” (2012)
Calls of active or inactive are those of the source. No cut-off for these calls is given here. *1 amine or outer side, *2 acyl side, *3 side chain or, on linkers, in order; H or OH if unused. Where a SMILES comes first, the peptide text is derived from it. Bridges are numbered along the chain shown (N, C = ends). [ ]: non-standard residue; d: D form. X1 = C#CCCC[C@H](O[*:2])C(C)(C)C(=O)[*:1]; X3 = C=CCCC[C@H](O[*:2])C(C)(C)C(=O)[*:1]; X2 = CCCCC[C@H](O[*:2])C(C)(C)C(=O)[*:1]; Hmp(2R,3S) = CC[C@H](C)[C@@H](O)C(=O)O; PhLac = O=C(O)[C@@H](O)Cc1ccccc1; NMeV = CN[C@H](C(=O)O)C(C)C; NMeA = CN[C@@H](C)C(=O)O

Experiments:
[1] = test system: NCI-H460; test: Cytotoxicity against human H460 cells at 30 ug/mL after 48 hrs by MTT assay; type: functional, cell-based
[2] = test system: NCI-H460; test: Cytotoxicity against human H460 cells after 48 hrs by MTT assay; type: functional; conditions: NCI-H460, 48 h, read-out: LD50 (the source's name)

Structure (SMILES)	Activity [1]	CC50 [2]
C#CCCC[C@@H]1OC(=O)[C@H](C(C)C)NC(=O)[C@H](C)N(C)C(=O)[C@@H]2CCCN2C(=O)[C@H](Cc2ccccc2)OC(=O)[C@H](C(C)C)N(C)C(=O)[C@H](C(C)C)NC(=O)C1(C)C (V[NMeV][PhLac]P[NMeA]V; linker N-C via X1)	inactive	
CCCCC[C@@H]1OC(=O)[C@H](C(C)C)NC(=O)[C@H](C)N(C)C(=O)[C@@H]2CCCN2C(=O)[C@H](Cc2ccccc2)OC(=O)[C@H](C(C)C)N(C)C(=O)[C@H](C(C)C)NC(=O)C1(C)C (V[NMeV][PhLac]P[NMeA]V; linker N-C via X2)	inactive	
C=CCCC[C@@H]1OC(=O)[C@H](C(C)C)NC(=O)[C@H](C)N(C)C(=O)[C@@H]2CCCN2C(=O)[C@H](Cc2ccccc2)OC(=O)[C@H](C(C)C)N(C)C(=O)[C@H](C(C)C)NC(=O)C1(C)C (V[NMeV][PhLac]P[NMeA]V; linker N-C via X3)	inactive	
C#CCCC[C@@H]1OC(=O)[C@H]([C@@H](C)O)NC(=O)[C@H](C(C)C)N(C)C(=O)[C@@H]2CCCN2C(=O)[C@@H]([C@@H](C)CC)OC(=O)[C@H](C(C)C)N(C)C(=O)[C@H](C(C)C)NC(=O)C1(C)C [VIEQUEAMIDE A] (V[NMeV][Hmp(2R,3S)]P[NMeV]T; linker N-C via X1)		60 nM
